Data published in patent publication US9982005B2, “Macrolides and methods of their preparation and use” (President and Fellows of Harvard College, priority 2013, dated 2018).
In brackets after ≈: the same amount, converted by molar mass. Like-named read-outs stand apart in the source and are kept apart here.

Tests used:
Type in all cases: cell-based
[1] = test system: S. aureus (Newman, clinical isolate); experiment: MIC, S. aureus Newman; conditions: Staphylococcus aureus
Description: (§1) We have collected MIC data for a total of 50 novel macrolides that this platform has produced against over 21 unique strains of B. subtilis, E. coli, S. aureus, S. pneumoniae, and H. influenzae, including several multidrug-resistant strains, with a special focus on macrolide resistant mechanisms (vide supra). Azithromycin was included as a control macrolide. CLSI standard procedures for broth dilution MIC determination were used. […] These genotypes can be constitutive or inducible. The finding that C4-epi (unnatural) isomers of the “azaketolide” macrolide class have enhanced activities relative to C4 natural isomers is very exciting.

S. aureus strains = experiment: MIC against S. aureus strains (Table M7); conditions: Staphylococcus aureus
Procedure, shortened: (§2)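 MICs were determined by broth dilution following CLSI standard procedures. Azithromycin served as the control macrolide.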

E. coli strains = experiment: MIC against E. coli strains (Table M7); conditions: Escherichia coli, ATCC25922, E. coli ATCC 25922
Procedure, shortened: as §2

A. baumannii strains = experiment: MIC against A. baumannii strains (Table M8); conditions: Acinetobacter baumannii, BAA747, A. baumannii BAA747-1
S. pneumoniae strains = experiment: MIC against S. pneumoniae strains (Tables M7, M8); conditions: Streptococcus pneumoniae
Description: CLSI standard procedures for broth dilution MIC determination were used. […] These genotypes can be constitutive or inducible.

K. pneumoniae strains = experiment: MIC against K. pneumoniae strains (Table M8); conditions: Klebsiella pneumoniae, K. pneumoniae 10031
E. coli (MC4100) = experiment: MIC, E. coli MC4100
Description: as §1

H. influenzae strains = experiment: MIC against H. influenzae strains (Table M8); conditions: Haemophilus influenzae
Procedure, shortened: as §2

E. faecalis strains = experiment: MIC against E. faecalis strains (Table M8); conditions: Enterococcus faecalis, E. faecalis 29212
[2] = test system: Spn1533 S. pneumoniae ermB positive mefA positive; experiment: broth dilution MIC, S. pneumoniae Spn1533; conditions: Streptococcus pneumoniae
Description: as §1

[3] = test system: HI175 H. influenzae ATCC49247; experiment: broth dilution MIC, H. influenzae HI175; conditions: Haemophilus influenzae
Description: as §1

[4] = test system: SA183 S. aureus ermA positive msrA unknown; experiment: broth dilution MIC, S. aureus SA183; conditions: Staphylococcus aureus
Description: as §1

[5] = test system: BS1723 B. subtilis BS168 WT wild type; experiment: broth dilution MIC, B. subtilis BS1723; conditions: Bacillus subtilis, BS1723 B. subtilis BS168 WT wild type; read-out: MIC
Procedure, shortened: as §2

[6] = test system: SA557 S. aureus ermA unknown msrA positive; experiment: broth dilution MIC, S. aureus SA557; conditions: Staphylococcus aureus; SA557 S. aureus ermA unknown msrA positive; read-out: MIC
Description: as §1

[7] = test system: SA418 S. aureus ermA negative msrA positive; experiment: broth dilution MIC, S. aureus SA418; conditions: Staphylococcus aureus
Description: as §1

[8] = test system: Spn1509 S. pneumoniae ermB positive mefA negative; experiment: broth dilution MIC, S. pneumoniae Spn1509; conditions: Streptococcus pneumoniae; Spn1509 S. pneumoniae ermB positive mefA negative; read-out: MIC
Description: as §1

[9] = test system: Spn1427 S. pneumoniae ermB positive mefA negative; experiment: broth dilution MIC, S. pneumoniae Spn1427; conditions: Streptococcus pneumoniae
Description: as §1

[10] = test system: Spn1537 S. pneumoniae ermB positive mefA positive; experiment: broth dilution MIC, S. pneumoniae Spn1537; conditions: Streptococcus pneumoniae
Description: as §1

[11] = test system: Spn160 S. pneumoniae ermB unknown mefA positive; experiment: broth dilution MIC, S. pneumoniae Spn160; conditions: Streptococcus pneumoniae; Spn160 S. pneumoniae ermB unknown mefA positive; read-out: MIC
Description: as §1

EC878 E. coli tolC = experiment: broth dilution MIC, E. coli EC878; conditions: Escherichia coli
Procedure, shortened: as §2

[12] = test system: SA1707 S. aureus ermA negative msrA positive; experiment: broth dilution MIC, S. aureus SA1707; conditions: Staphylococcus aureus
Description: as §1

EC107 E. coli ATCC25922 = experiment: broth dilution MIC, E. coli EC107; conditions: Escherichia coli, read-out: MIC
Procedure, shortened: as §2

EC882 E. coli imp = experiment: broth dilution MIC, E. coli EC882; conditions: Escherichia coli
Procedure, shortened: as §2

[13] = test system: SA101 S. aureus ATCC29213; experiment: broth dilution MIC, S. aureus SA101; conditions: Staphylococcus aureus, ATCC29213, SA101 S. aureus ATCC29213; read-out: MIC
Procedure, shortened: as §2

[14] = test system: SA506 S. aureus ermA positive msrA unknown; experiment: broth dilution MIC, S. aureus SA506; conditions: Staphylococcus aureus
Description: as §1

BS1725 B. subtilis ermC = experiment: broth dilution MIC, B. subtilis BS1725; conditions: Bacillus subtilis, BS1725 B. subtilis ermC (+ery)
Procedure, shortened: as §2

[15] = test system: Spn 106 S. pneumonia ATCC49619; experiment: broth dilution MIC, S. pneumoniae Spn 106; conditions: Streptococcus pneumoniae; Spn 106 S. pneumonia ATCC49619; read-out: MIC
Description: as §1

[16] = test system: SA1708 S. aureus ermA positive msrA negative; experiment: broth dilution MIC, S. aureus SA1708; conditions: Staphylococcus aureus
Description: as §1

[17] = S. aureus (Neuman, clinical isolate), round 2
[18] = S. aureus (Newman, clinical isolate), round 1
[19] = ATCC29213, S. aureus ATCC 29213, read-out: MIC S. aureus (ATCC 29213)
[20] = S. aureus 506, read-out: MIC S. aureus (506)
[21] = S. aureus 1708, read-out: MIC S. aureus (1708)
[22] = USA300, S. aureus USA300, read-out: MIC S. aureus (USA300)
[23] = S. pneumoniae 160, read-out: MIC S. pneumonae (160)
[24] = S. pneumoniae 1509, read-out: MIC S. pneumoniae (1509)
[25] = S. pneumoniae 1533, read-out: MIC S. pneumoniae (1533)
[26] = S. pneumoniae 1537, read-out: MIC S. pneumoniae (1537)
[27] = S. pneumoniae 49619, read-out: MIC S. pneumoniae (49619)
[28] = Escherichia coli, round 1, read-out: MIC
[29] = H. influenzae 49247, read-out: MIC H. influenzae (49247)
[30] = H. influenzae 49766, read-out: MIC H. influenzae (49766)

Row | SMILES | MIC [1, 17] | MIC [1, 18] | MIC (S. aureus strains; [19]) | MIC (S. aureus strains; [20]) | MIC (S. aureus strains; [21]) | MIC (S. aureus strains; [22]) | MIC (E. coli strains) | MIC (A. baumannii strains) | MIC (S. pneumoniae strains; [23]) | MIC (S. pneumoniae strains; [24]) | MIC (S. pneumoniae strains; [25]) | MIC (S. pneumoniae strains; [26]) | MIC (S. pneumoniae strains; [27]) | MIC (K. pneumoniae strains) | MIC (E. coli (MC4100); [28]) | MIC (H. influenzae strains; [29]) | MIC (H. influenzae strains; [30]) | MIC (E. faecalis strains) | also measured
1 | CC[C@H]1OC(=O)[C@H](C)C(=O)[C@H](C)[C@@H](O[C@@H]2OC(C)CC(N(C)C)C2O)[C@](C)(OC/C=C/c2cnc3ccccc3c2)C[C@@H](C)CN[C@H](C)[C@H]2NC(=O)O[C@@]21C (stereo partly drawn) [FSM-20919] | 0.5 µg/mL (≈ 0.652 µM) | 0.25 µg/mL (≈ 0.326 µM) | 0.25 µg/mL (≈ 0.326 µM) | > 32 µg/mL | 0.25 µg/mL (≈ 0.326 µM) | 0.5 µg/mL (≈ 0.652 µM) | 4 µg/mL (≈ 5.22 µM) | 16 µg/mL (≈ 20.9 µM) | ≤ 0.0625 µg/mL | 0.5 µg/mL (≈ 0.652 µM) | 32 µg/mL (≈ 41.7 µM) | 32 µg/mL (≈ 41.7 µM) | ≤ 0.0625 µg/mL | 16 µg/mL (≈ 20.9 µM) | 2 µg/mL (≈ 2.61 µM) | 1 µg/mL (≈ 1.3 µM) | 4 µg/mL (≈ 5.22 µM) | 0.5 µg/mL (≈ 0.652 µM) | MIC (S. aureus strains; S. aureus 183, read-out: MIC S. aureus (183)): > 32 µg/mL; MIC (E. coli (MC4100); round 2): 2 µg/mL (≈ 2.61 µM)
2 | CC[C@H]1OC(=O)[C@H](C)C(=O)[C@H](C)[C@@H](O[C@@H]2OC(C)CC(N(C)C)C2O)[C@](C)(OC)C[C@@H](C)CN[C@H](C)[C@H]2N(CCCn3cc(-c4cccc(N)c4)nn3)C(=O)O[C@]12C (stereo partly drawn) [FSM-40347] |  | 2 µg/mL (≈ 2.46 µM) | 4 µg/mL (≈ 4.91 µM) | > 32 µg/mL | 4 µg/mL (≈ 4.91 µM) | 4 µg/mL (≈ 4.91 µM) | 8 µg/mL (≈ 9.83 µM) | 8 µg/mL (≈ 9.83 µM) | 0.125 µg/mL (≈ 0.154 µM) | 32 µg/mL (≈ 39.3 µM) | > 32 µg/mL | > 32 µg/mL | 0.25 µg/mL (≈ 0.307 µM) | 2 µg/mL (≈ 2.46 µM) | 8 µg/mL (≈ 9.83 µM) | 0.5 µg/mL (≈ 0.614 µM) | 4 µg/mL (≈ 4.91 µM) | 0.25 µg/mL (≈ 0.307 µM) | 
3 | CC[C@H]1OC(=O)[C@H](C)C(=O)[C@H](C)[C@@H](O[C@@H]2OC(C)CC(N(C)C)C2O)[C@](C)(OC)C[C@@H](C)CN[C@H](C)[C@H]2N(CCCCCn3cc(-c4cccc(N)c4)nn3)C(=O)O[C@]12C (stereo partly drawn) [FSM-40349] |  | 2 µg/mL (≈ 2.38 µM) | 1 µg/mL (≈ 1.19 µM) | > 32 µg/mL | 1 µg/mL (≈ 1.19 µM) | 2 µg/mL (≈ 2.38 µM) | 8 µg/mL (≈ 9.5 µM) | 32 µg/mL (≈ 38 µM) | 0.125 µg/mL (≈ 0.148 µM) | 2 µg/mL (≈ 2.38 µM) | > 32 µg/mL | > 32 µg/mL | ≤ 0.0625 µg/mL | 2 µg/mL (≈ 2.38 µM) | 16 µg/mL (≈ 19 µM) | 0.5 µg/mL (≈ 0.594 µM) | 2 µg/mL (≈ 2.38 µM) | 0.125 µg/mL (≈ 0.148 µM) | 
4 | CC[C@H]1OC(=O)[C@H](C)C(=O)[C@H](C)[C@@H](O[C@@H]2OC(C)CC(N(C)C)C2O)/C(C)=C/CN(C)[C@H](C)[C@H]2N(CCCCn3cc(-c4cccc(N)c4)nn3)C(=O)O[C@]12C (stereo partly drawn) [FSM-30633] | > 32 µg/mL |  | > 32 µg/mL | > 32 µg/mL | > 32 µg/mL | > 32 µg/mL | > 32 µg/mL | > 32 µg/mL | > 32 µg/mL | > 32 µg/mL | > 32 µg/mL | > 32 µg/mL | > 32 µg/mL | > 32 µg/mL |  | 32 µg/mL (≈ 40.9 µM) | > 32 µg/mL | > 32 µg/mL | MIC (E. coli (MC4100); Escherichia coli, round 2, read-out: MIC): > 32 µg/mL
5 | CC[C@H]1OC(=O)C(C)(F)C(=O)[C@@H](C)[C@@H](O[C@@H]2OC(C)CC(N(C)C)C2O)[C@](C)(OC)C[C@@H](C)CN[C@H](C)[C@H]2N(CCCCn3cc(-c4cccc(N)n4)nn3)C(=O)O[C@]12C (stereo partly drawn) [FSM-20718] |  |  |  |  |  |  |  |  |  |  |  |  |  |  |  |  |  |  | MIC [2]: > 32 µg/mL; MIC [3]: 2 to 16 µg/mL (≈ 2.36 to 18.9 µM); MIC [4]: > 32 µg/mL; MIC [5]: 8 µg/mL (≈ 9.44 µM); MIC [6]: 8 µg/mL (≈ 9.44 µM); MIC [7]: 16 µg/mL (≈ 18.9 µM); MIC [8]: 0.5 to 4 µg/mL (≈ 0.59 to 4.72 µM); MIC [9]: 4 to 32 µg/mL (≈ 4.72 to 37.8 µM); MIC [10]: > 32 µg/mL; MIC [11]: 0.25 to 1 µg/mL (≈ 0.295 to 1.18 µM); MIC (EC878 E. coli tolC): 1 µg/mL (≈ 1.18 µM); MIC [12]: 32 µg/mL (≈ 37.8 µM); MIC (EC107 E. coli ATCC25922): > 32 µg/mL; MIC (EC882 E. coli imp): 0.125 µg/mL (≈ 0.148 µM); MIC [13]: 8 µg/mL (≈ 9.44 µM); MIC [14]: > 32 µg/mL; MIC (BS1725 B. subtilis ermC): > 32 µg/mL; MIC [15]: 0.0156 to 0.25 µg/mL (≈ 0.0184 to 0.295 µM); MIC [16]: 16 µg/mL (≈ 18.9 µM)
